Broadly, the IC50 is the concentration needed to halve the response being measured.

This note sets out measurements from patent US9334285B2, “Aldosterone synthase inhibitors” (Boehringer Ingelheim International GmbH, priority 2014, dated 2016).

The structures appear in SMILES notation. Read-outs that look alike come from different tables or passages of the source. Some results are limits rather than exact numbers.

One assay deals with T1, CYP19A1 (Homo sapiens, UniProt P11511).
T1 sequence (P11511 1-503): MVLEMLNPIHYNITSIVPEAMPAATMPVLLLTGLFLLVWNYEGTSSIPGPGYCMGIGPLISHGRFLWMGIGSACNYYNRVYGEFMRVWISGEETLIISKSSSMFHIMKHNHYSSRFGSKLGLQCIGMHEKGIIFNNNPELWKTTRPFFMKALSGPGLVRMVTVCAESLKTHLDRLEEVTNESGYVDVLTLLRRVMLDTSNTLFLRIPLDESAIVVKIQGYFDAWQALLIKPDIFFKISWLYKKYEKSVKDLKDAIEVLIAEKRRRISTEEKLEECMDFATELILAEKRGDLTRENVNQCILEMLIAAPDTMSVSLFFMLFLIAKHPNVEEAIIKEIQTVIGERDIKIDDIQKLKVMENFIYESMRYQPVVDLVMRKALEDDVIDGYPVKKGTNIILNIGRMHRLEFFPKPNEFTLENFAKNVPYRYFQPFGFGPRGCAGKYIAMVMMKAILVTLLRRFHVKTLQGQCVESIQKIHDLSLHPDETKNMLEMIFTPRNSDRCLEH
Nature of the assay: Inhibition of CYP19A1 (Kragie et al.). It counts as biochemical. The following applies: read-out: CYP19A1 IC50.

The target in another assay is T2, rhCYP17A1 (Homo sapiens, UniProt P05093).
T2 construct: purchased Cypex
T2 sequence (P05093 1-508): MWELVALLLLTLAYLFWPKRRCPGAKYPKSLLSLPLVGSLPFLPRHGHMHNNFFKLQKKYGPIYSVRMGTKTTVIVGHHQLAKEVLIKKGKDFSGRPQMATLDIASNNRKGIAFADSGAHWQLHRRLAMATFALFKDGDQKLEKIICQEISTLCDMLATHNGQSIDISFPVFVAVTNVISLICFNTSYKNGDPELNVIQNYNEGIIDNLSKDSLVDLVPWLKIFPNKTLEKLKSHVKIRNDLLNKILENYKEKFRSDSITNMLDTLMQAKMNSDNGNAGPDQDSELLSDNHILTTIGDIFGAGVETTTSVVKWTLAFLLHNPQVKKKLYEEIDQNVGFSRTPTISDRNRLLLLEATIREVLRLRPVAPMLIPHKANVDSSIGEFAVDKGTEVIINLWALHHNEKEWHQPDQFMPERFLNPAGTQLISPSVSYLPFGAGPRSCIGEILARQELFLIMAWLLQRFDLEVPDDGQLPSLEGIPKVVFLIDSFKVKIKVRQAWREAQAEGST
Nature of the assay: Inhibition of CYP17A1, progesterone to 17-α-hydroxyprogesterone, mass spectrometry. It counts as biochemical. The method, then:
Compounds of the invention may also be evaluated for inhibition of CYP17A1 via the following assay:
Reactions are started by the addition of NADPH to 1 mM and allowed to proceed for 15 minutes at 37° C. Reactions are terminated by the addition of 40 μL of MeCN containing an internal standard for mass spectrometry. The plates are centrifuged at 3000 rpm for 5 min and the reaction product 17-α-hydroxyprogesterone is quantified by mass spectrometry. To determine the assay blank value (0% activity), NADPH is omitted from some reactions.
(§1) Dose dependent inhibition is quantified by the inclusion of compound at various concentrations. Maximum activity (100%) is defined by reactions containing NADPH, but without compound.

Assay [1] concerns the target cortisol synthase (CYP11B1) (Macaca fascicularis, UniProt A0A2K5ULY1). Nature of the assay: Inhibition of cortisol synthesis, cynomolgus adrenal mitochondria, 11-deoxycortisol as substrate. The class given is biochemical, cynomolgus monkey. The note with it: 150 units of CYP11B1, 11-deoxycortisol as substrate. Here is the method:
The aldosterone synthase and cortisol synthase inhibition assays employ cynomolgus adrenal gland mitochondria as the source of aldosterone synthase (CYP11B2) and cortisol synthase (CYP11B1). Mitochondria are prepared from frozen cynomolgus monkey adrenal glands according to Method A described in by J. D. McGarry et al. (Biochem. J., 1983, 214, 21-28), with a final resuspension in the AT buffer described in R. Yamaguchi et al. (Cell Death and Differentiation, 2007, 14, 616-624), frozen as aliquots in liquid nitrogen and stored at −80° C. until use. One unit of CYP11B2 and CYP11B1 activity in these preparations is defined as the amount of enzyme that generates 1 pmol of product in one hour under the conditions described.
Assays are performed as for aldosterone synthase except for the use of 150 units of CYP11B1, 11-deoxycortisol as substrate and cortisol measured as product.

Assay [2] concerns the target T3, aldosterone synthase (CYP11B2) (Macaca fascicularis, UniProt A0A2K5UPL9).
T3 construct: employ cynomolgus adrenal gland mitochondria as the source of aldosterone synthase (CYP11B2); from tissue; host or cells: cynomolgus monkey adrenal gland mitochondria
T3 sequence (A0A2K5UPL9 1-503): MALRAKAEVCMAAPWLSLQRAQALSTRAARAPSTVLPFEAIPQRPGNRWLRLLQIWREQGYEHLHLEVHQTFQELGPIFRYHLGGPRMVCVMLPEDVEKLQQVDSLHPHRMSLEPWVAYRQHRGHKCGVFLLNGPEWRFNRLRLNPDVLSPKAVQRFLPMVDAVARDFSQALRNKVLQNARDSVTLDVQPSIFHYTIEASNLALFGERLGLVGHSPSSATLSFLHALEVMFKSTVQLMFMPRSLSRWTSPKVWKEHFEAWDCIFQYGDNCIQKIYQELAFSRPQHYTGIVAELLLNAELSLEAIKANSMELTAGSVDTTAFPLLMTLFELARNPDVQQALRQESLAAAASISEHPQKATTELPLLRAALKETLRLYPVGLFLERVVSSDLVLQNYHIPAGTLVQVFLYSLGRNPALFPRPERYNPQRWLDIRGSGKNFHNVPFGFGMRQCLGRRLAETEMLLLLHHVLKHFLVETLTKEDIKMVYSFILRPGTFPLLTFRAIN
Put plainly: Inhibition of aldosterone synthase, cynomolgus adrenal mitochondria, aldosterone quantified by mass spectrometry. The class given is biochemical, cynomolgus monkey. The following applies: 2 μM corticosterone, 90 minutes at 37° C. The method, then:
The aldosterone synthase and cortisol synthase inhibition assays employ cynomolgus adrenal gland mitochondria as the source of aldosterone synthase (CYP11B2) and cortisol synthase (CYP11B1). […] One unit of CYP11B2 and CYP11B1 activity in these preparations is defined as the amount of enzyme that generates 1 pmol of product in one hour under the conditions described.
The compounds of the invention may be evaluated for aldosterone synthase inhibition by the following assay:
Assays are performed in 96-well format in a final volume of 60 microL/well, containing 100 mM potassium phosphate, pH 7.4, 1% (v/v) DMSO, and additionally, 2 μM of corticosterone and 50 units of CYP11B2 activity. Reactions are started by the addition of NADPH to 1 mM and allowed to proceed for 90 minutes at 37° C. Reactions are terminated by the addition of 60 μL of MeCN containing an internal standard for mass spectrometry. One hundred microliters are then transferred to a glass filter plate and centrifuged at 570×g for 5 minutes and the filtrate is collected. Reaction product aldosterone is quantified by mass spectrometry. To determine the assay blank value (0% activity), NADPH is omitted from some reactions.
as §1

[3] abbreviates: rhCYP17A1, 150 nM progesterone, 15 minutes at 37° C.; read-out: CYP17A1 IC50.
[4] abbreviates: cynomolgus adrenal mitochondria, read-out: Cortisol Inhibition IC50.
Setting [5] is: Cortisol Inhibition IC50, cynomolgus adrenal mitochondria.

Regarding `CC1(CO)Cc2ncn(-c3ccc(Cl)c(Cl)c3)c2C(=O)O1` (single isomer, unassigned) [Compound 30A, 3-(3,4-dichlorophenyl)-6-(hydroxymethyl)-6-methyl-3H,4H,6H,7H-pyrano[3,4-d]imidazol-4-one], the IC50 at CYP19A1 was greater than 20 µM; at rhCYP17A1 (setting [3]), greater than 20 µM; in assay [1] (setting [4]) it was 9 µM; in assay [2], 0.028 µM.
For `Cc1cc(-n2cnc3c2C(=O)OC(C)(CO)C3)ccc1C#N` (single isomer, unassigned) [Compound 39A, 4-[6-(hydroxymethyl)-6-methyl-4-oxo-3H,4H,6H,7H-pyrano[3,4-d]imidazol-3-yl]-2-methylbenzonitrile], the IC50 on CYP19A1 was greater than 20 µM; on rhCYP17A1 (setting [3]), greater than 20 µM; in assay [1] (setting [5]), 1.4 µM; in assay [2], 0.011 µM.
As to `C[C@]1(CO)Cc2ncn(-c3ccc(C#N)c(Cl)c3)c2C(=O)O1` (single isomer, unassigned) [Compound 29A], the 50% inhibitory concentration (IC50) is greater than 20 µM at CYP19A1, greater than 20 µM on rhCYP17A1 (setting [3]), 4.7 µM in assay [1] (setting [5]) and 0.016 µM in assay [2].
With `CC1(CO)Cc2ncn(-c3ccc4c(c3)CCO4)c2C(=O)O1` (single isomer, unassigned) [Compound 42B, 3-(2,3-Dihydro-benzofuran-5-yl)-6-hydroxymethyl-6-methyl-6,7-dihydro-3H-pyrano[3,4-d]imidazol-4-one], the IC50 at CYP19A1 is greater than 20 µM; on rhCYP17A1 (setting [3]) it was greater than 20 µM; in assay [1] (setting [4]), greater than 30 µM; in assay [2], 0.076 µM.
With `CC1(C)Cc2ncn(-c3ccc(Cl)cc3)c2C(=O)O1` [Compound 9, 3-(4-chlorophenyl)-6,6-dimethyl-3H,4H,6H,7H-pyrano[3,4-d]imidazol-4-one], the IC50 is greater than 20 µM on CYP19A1, greater than 20 µM at rhCYP17A1 (setting [3]), 2.4 µM in assay [1] (setting [4]) and 0.032 µM in assay [2].
On to `CC1(CO)Cc2ncn(-c3cccc(Cl)c3F)c2C(=O)O1` (single isomer, unassigned) [Compound 35A, 3-(3-chloro-2-fluorophenyl)-6-(hydroxymethyl)-6-methyl-3H,4H,6H,7H-pyrano[3,4-d]imidazol-4-one], for which the IC50 at CYP19A1 is greater than 20 µM; on rhCYP17A1 (setting [3]) it was 15 µM; in assay [1] (setting [4]), 24 µM; in assay [2], 0.07 µM.
Regarding `N#Cc1ccc(-n2cnc3c2C(=O)OC(CO)C3)cc1Cl` (single isomer, unassigned) [Compound 33B, 2-chloro-4-[6-(hydroxymethyl)-4-oxo-3H,4H,6H,7H-pyrano[3,4-d]imidazol-3-yl]benzonitrile], the IC50 on CYP19A1 was greater than 20 µM; on rhCYP17A1 (read-out: CYP17A1 IC50; rhCYP17A1, 150 nM progesterone, 15 minutes at 37° C.), greater than 20 µM; in assay [1] (setting [5]), 14 µM; in assay [2], 0.027 µM.
On to `CC1(CO)Cc2ncn(-c3ccc(Cl)c(Cl)c3)c2C(=O)O1` (single isomer, unassigned) [Compound 30B, 3-(3,4-dichlorophenyl)-6-(hydroxymethyl)-6-methyl-3H,4H,6H,7H-pyrano[3,4-d]imidazol-4-one], for which the IC50 at CYP19A1 was greater than 20 µM; at rhCYP17A1 (setting [3]), greater than 20 µM; in assay [1] (setting [4]) it was 5.2 µM; in assay [2], 0.031 µM.
As for `CC1(C)Cc2ncn(-c3ccc(Cl)c(Cl)c3)c2C(=O)O1` [Compound 4, 3-(3,4-dichlorophenyl)-6,6-dimethyl-3H,4H,6H,7H-pyrano[3,4-d]imidazol-4-one], the IC50 in assay [1] (setting [4]) worked out at 1.2 µM; in assay [2] it was 0.0084 µM.
The matching figures for `CC1(CO)Cc2ncn(-c3ccc(Cl)cc3)c2C(=O)O1` (single isomer, unassigned) [Compound 38B, 3-(4-chlorophenyl)-6-(hydroxymethyl)-6-methyl-3H,4H,6H,7H-pyrano[3,4-d]imidazol-4-one]: 36 µM and 0.39 µM.
Take `CC(=O)OCC1(C)Cc2ncn(-c3ccc(C#N)c(Cl)c3)c2C(=O)O1` (centres unmarked) [Compound 32, [3-(3-chloro-4-cyanophenyl)-6-methyl-4-oxo-3H,4H,6H,7H-pyrano[3,4-d]imidazol-6-yl]methyl acetate]: the figures for the IC50 in assay [1] (setting [5]) and in assay [2] were 6.5 µM and 0.036 µM, respectively.
